Measured values as given in patent USRE39591E1, “6-O-substituted ketolides having antibacterial activity” (Abbott Laboratories, priority 1996, dated 2007).

Tested on: up to 32 different microorganisms
Experiment: in vitro antibacterial activity (MIC), agar dilution on Brain Heart Infusion (BHI) agar with Steers replicator
Format: cell-based
Conditions: unit assumed
Method in brief: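 Erythromycin A served as the same-class reference for test-to-test comparability. Test compound was tested over twelve successive dilutions in BHI agar; plates were incubated 20 to 24 hours at 35°-37° C, with MIC taken as the lowest concentration showing no growth, slight haze, or sparse colonies.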

Compound `CCC1OC(=O)C(C)C(=O)C(C)C(OC2OC(C)CC(N(C)C)C2O)C(C)(OCC=Cc2ccc3ncc(-c4ccccc4)cc3c2)CC(C)C(=O)C(C)C2NC(=O)OC12C` (centres unmarked) [Example 273, Compound of Formula (IX): L is CO, T is NH2, R is —CH2CH═CH-(3-phenyl-6-quinolyl)] has an MIC (organism code AA) of 0.2 µg/mL, an MIC (organism code BB) of 0.2 µg/mL and an MIC (organism code CC) of over 100 µg/mL. The MIC (organism code DD) was 0.2 µg/mL, the MIC (organism code EE) was 0.2 µg/mL and the MIC (organism code FF) was 0.2 µg/mL. The MIC (organism code GG) was over 100 µg/mL, the MIC (organism code HH) was 0.2 µg/mL and the MIC (organism code II) was 0.1 µg/mL. It also gave an MIC (organism code JJ) of 0.02 µg/mL, an MIC (organism code KK) of 0.02 µg/mL and an MIC (organism code LL) of 0.05 µg/mL. It also gave an MIC (organism code MM) of 12.5 µg/mL, an MIC (organism code NN) of 0.39 µg/mL and an MIC (organism code OO) of 0.05 µg/mL. It also gave an MIC (organism code PP) of 0.39 µg/mL, an MIC (organism code QQ) of over 100 µg/mL and an MIC (organism code RR) of 0.78 µg/mL. The MIC (organism code SS) was over 100 µg/mL, the MIC (organism code TT) was over 100 µg/mL and the MIC (organism code UU) was 0.78 µg/mL. It also gave an MIC (organism code VV) of 0.39 µg/mL, an MIC (organism code WW) of 8 µg/mL and an MIC (organism code XX) of 0.03 µg/mL. The MIC (organism code YY) was 0.03 µg/mL, the MIC (organism code ZZ) was 16 µg/mL and the MIC (organism code ZZA) was 0.5 µg/mL.

Work on `C=CCOC1(C)CC(C)C(=O)C(C)C(O)C(C)(O)C(CC)OC(=O)C(C)C(=O)C(C)C1OC1OC(C)CC(N(C)C)C1O` (centres unmarked) [Example 1, Compound of Formula (VIII): X is O, R is allyl] yielded an MIC (Candida albicans CCH 442 (code TT)) of over 100 µg/mL, an MIC (Enterococcus faecism ATCC 8043 (code II)) of 12.5 µg/mL and an MIC (Escherichia coli DC-2 (code SS)) of over 100 µg/mL. For the same compound, the MIC (Escherichia coli JUHL (code QQ)) was over 100 µg/mL, the MIC (Escherichia coli SS (code RR)) was 12.5 µg/mL and the MIC (Haemophilis influenzae DILL AMP R (code WW)) was over 128 µg/mL. It also gave an MIC (Micrococcus luteus ATCC 4698 (code PP)) of 6.2 µg/mL, an MIC (Micrococcus luteus ATCC 9341 (code OO)) of 3.1 µg/mL and an MIC (Mycobacterium smegmatis ATCC 114 (code UU)) of over 100 µg/mL. It also gave an MIC (Nocardia Asteroides ATCC9970 (code VV)) of 6.3 µg/mL, an MIC (Staphylococcus aureus 1775 (code GG)) of over 100 µg/mL and an MIC (Staphylococcus aureus A5177 (code BB)) of 50 µg/mL. It also gave an MIC (Staphylococcus aureus A-5278 (code CC)) of over 100 µg/mL, an MIC (Staphylococcus aureus ATCC 6538P (code AA)) of 12.5 µg/mL and an MIC (Staphylococcus aureus CMX 553 (code FF)) of 25 µg/mL. The MIC (Staphylococcus aureus CMX 642A (code DD)) was 50 µg/mL, the MIC (Staphylococcus aureus NCTC10649M (code EE)) was 6.2 µg/mL and the MIC (Staphylococcus epidermidis 3519 (code HH)) was 50 µg/mL. The MIC (Streptococcus Pneumonia 5649 (code ZZA)) was 8 µg/mL, the MIC (Streptococcus Pneumonia 5979 (code ZZ)) was over 128 µg/mL and the MIC (Streptococcus Pneumonia ATCC6303 (code XX)) was 4 µg/mL. It also gave an MIC (Streptococcus Pneumonia GYR 1171 (code YY)) of 4 µg/mL, an MIC (Streptococcus agalactiae CMX 508 (code KK)) of 6.2 µg/mL and an MIC (Streptococcus bovis A-5169 (code JJ)) of 25 µg/mL. The MIC (Streptococcus pyogenes 930 (code MM)) was over 100 µg/mL and the MIC (Streptococcus pyogenes PIU 2548 (code NN)) was 12.5 µg/mL.

`CCC1OC(=O)C(C)C(=O)C(C)C(OC2OC(C)CC(N(C)C)C2O)C(C)(OCC=Cc2ccc3cc(O)ccc3c2)CC(C)C(=O)C(C)C2NC(=O)OC12C` (centres unmarked) [Example 287, Compound of Formula (IX): L is CO, T is NH2, R is —CH2CH═CH-(6-hydroxy-2-naphthyl)] gave an MIC (organism code AA) of 0.1 µg/mL, an MIC (organism code BB) of 0.1 µg/mL and an MIC (organism code CC) of over 100 µg/mL. For the same compound, the MIC (organism code DD) was 0.1 µg/mL, the MIC (organism code EE) was 0.1 µg/mL and the MIC (organism code FF) was 0.02 µg/mL. For the same compound, the MIC (organism code GG) was over 100 µg/mL, the MIC (organism code HH) was 0.1 µg/mL and the MIC (organism code II) was 0.05 µg/mL. For the same compound, the MIC (organism code JJ) was 0.02 µg/mL, the MIC (organism code KK) was 0.02 µg/mL and the MIC (organism code LL) was 0.02 µg/mL. For the same compound, the MIC (organism code MM) was 3.1 µg/mL, the MIC (organism code NN) was 0.1 µg/mL and the MIC (organism code OO) was 0.02 µg/mL. It also gave an MIC (organism code PP) of 0.2 µg/mL, an MIC (organism code QQ) of 50 µg/mL and an MIC (organism code RR) of 0.39 µg/mL. It also gave an MIC (organism code SS) of over 100 µg/mL, an MIC (organism code TT) of over 100 µg/mL and an MIC (organism code UU) of 0.39 µg/mL. It also gave an MIC (organism code VV) of 0.05 µg/mL, an MIC (organism code WW) of 2 µg/mL and an MIC (organism code XX) of 0.03 µg/mL. For the same compound, the MIC (organism code YY) was 0.03 µg/mL, the MIC (organism code ZZ) was 4 µg/mL and the MIC (organism code ZZA) was 0.5 µg/mL.

With `CC[C@H]1OC(=O)[C@H](C)C(=O)[C@H](C)[C@@H](O[C@@H]2O[C@H](C)C[C@H](N(C)C)[C@H]2O)[C@@](C)(OCC=NOCc2ccnc3ccccc23)C[C@@H](C)C(=O)[C@H](C)[C@H]2NC(=O)O[C@@]21C` [Example 231, Compound of Formula (IX): L is CO, T is NH, R is —CH2CH═NOCH2(4-quinolyl)] the MIC (organism code AA) was 0.1 µg/mL, the MIC (organism code BB) was 0.1 µg/mL and the MIC (organism code CC) was over 100 µg/mL. For the same compound, the MIC (organism code DD) was 0.1 µg/mL, the MIC (organism code EE) was 0.1 µg/mL and the MIC (organism code FF) was 0.05 µg/mL. The MIC (organism code GG) was over 100 µg/mL, the MIC (organism code HH) was 0.2 µg/mL and the MIC (organism code II) was 0.02 µg/mL. It also gave an MIC (organism code JJ) of 0.02 µg/mL, an MIC (organism code KK) of 0.02 µg/mL and an MIC (organism code LL) of 0.02 µg/mL. It also gave an MIC (organism code MM) of 100 µg/mL, an MIC (organism code NN) of 0.1 µg/mL and an MIC (organism code OO) of 0.02 µg/mL. For the same compound, the MIC (organism code PP) was 0.1 µg/mL, the MIC (organism code QQ) was 100 µg/mL and the MIC (organism code RR) was 0.39 µg/mL. For the same compound, the MIC (organism code SS) was 100 µg/mL, the MIC (organism code TT) was over 100 µg/mL and the MIC (organism code UU) was 0.78 µg/mL. It also gave an MIC (organism code VV) of 0.05 µg/mL, an MIC (organism code WW) of 2 µg/mL and an MIC (organism code XX) of 0.03 µg/mL. It also gave an MIC (organism code YY) of 0.03 µg/mL, an MIC (organism code ZZ) of over 128 µg/mL and an MIC (organism code ZZA) of 0.5 µg/mL.
